This is an account of results in patent publication US20250122222A1, “HETEROCYCLIC COMPOUNDS AND METHODS OF USE” (AMGEN INC., priority 2021, published 2025).

The target of test [1] is His-tagged KRAS G12D protein (Homo sapiens, UniProt P01116, G12D). The test can be described thus: KRAS G12D TR-FRET assay (binding). The note with it: biotinylated KRPep-2d substrate, GDP in assay buffer. Background: In TR-FRET formats the signal depends on donor and acceptor labels being close together.
Procedure: The plate was incubated for 30 minutes at room temperature. Biotinylated KRPep-2d substrate (Amgen) was diluted to 20 nM in Assay Buffer and 2 L was added to all wells and incubated for 1 hour at room temperature. Detection Reagent (0.4 nM LANCE Eu-W1024 Anti-6xHis (Perkin Elmer AD0401), 5 nM streptavidin-d^2 (Cisbio 610SADLA)) was prepared in Assay Buffer, then 4 μL was added to the plate and incubated for 1 hour at room temperature.
Test [2] relates to Phosphorylation of ERK1/2 in AsPC-1 cells. Description: Phospho-ERK1/2 MSD assay. The test is classed as cell-based. The note with it: Homo sapiens, ASPC1, read-out: 2 h p-ERK (AsPC-1 cells), IC50 (μM), 2 hours compound treatment. How it is done: Sixteen hours prior to compound treatment, AsPC-1 cells were seeded in 96-well cell culture plates at a density of 25,000 cells/well and incubated at 37° C., 5% CO2. A compound dose-response titration was diluted in growth media, added to appropriate wells of a cell culture plate, and then incubated at 37° C., 5% CO2 for 2 hours.

His-tagged KRAS G12D protein, sequence (P01116 1-188 isoform P01116-2 G12D): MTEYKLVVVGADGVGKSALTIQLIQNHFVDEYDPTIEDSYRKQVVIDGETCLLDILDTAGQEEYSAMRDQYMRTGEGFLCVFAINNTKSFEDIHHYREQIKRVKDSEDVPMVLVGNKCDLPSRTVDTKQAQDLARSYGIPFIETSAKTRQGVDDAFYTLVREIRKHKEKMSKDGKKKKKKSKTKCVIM

In general, IC50 refers to the concentration needed to halve the response being measured. In the case of `Cc1c(Cl)cc2[nH]ncc2c1-c1ncc2c(N3CCCOCC3)nc(OC[C@@]34CCCN3C[C@H](F)C4)nc2c1F` [Example 15, 4-(7-(6-Chloro-5-methyl-1H-indazol-4-yl)-8-fluoro-2-(((2R,7aS)-2-fluorotetrahydro-1H-pyrrolizin-7a(5H)-yl)methoxy)pyrido [4,3-d]pyrimidin-4-yl)-1,4-oxazepane], the concentration for half-maximal inhibition (IC50) in test [1] is 0.036 µM; in test [2], 4.51 µM.
In the same order, the values of `CCc1c(F)ccc2cc(O)cc(-c3ncc4c(N5CCCSCC5)nc(OC[C@@]56CCCN5C[C@H](F)C6)nc4c3F)c12` [Example 5, 5-Ethyl-6-fluoro-4-(8-fluoro-2-(((2R,7aS)-2-fluorotetrahydro-1H-pyrrolizin-7a(5H)-yl)methoxy)-4-(1,4-thiazepan-4-yl)pyrido[4,3-d]pyrimidin-7-yl)naphthalen-2-ol] are 0.002 µM and 0.088 µM.
Consider `CCc1c(F)ccc2cc(O)cc(-c3ncc4c(N5CCOCC(C(N)=O)C5)nc(OC[C@@]56CCCN5C[C@H](F)C6)nc4c3F)c12` (single isomer, unassigned) [Example 47], for which the IC50 is 0.003 µM in test [1] and 1.47 µM in test [2].
In the same order, the values of `CCc1c(F)ccc2cc(O)cc(-c3ncc4c(N5CCOCC(=O)C5)nc(OCC56CCCN5CC(F)C6)nc4c3F)c12` [Example 67, 4-(7-(8-ethyl-7-fluoro-3-hydroxy-naphthalen-1-yl)-8-fluoro-2-(((2R,7aS)-2-fluorotetrahydro-1H-pyrrolizin-7a(5H)-yl)methoxy)-pyrido[4,3-d]pyrim-idin-4-yl)-1,4-oxazepan-6-one] are 0.002 µM and 0.072 µM.
On to `CCc1c(F)ccc2cc(O)cc(-c3ncc4c(N5CCCOC(CO)C5)nc(OC[C@@]56CCCN5C[C@H](F)C6)nc4c3F)c12` (stereo partly drawn) [Example 56, 5-Ethyl-6-fluoro-4-(8-fluoro-2-(((2R, 7aS)-2-fluorotetra-hydro-1H-pyrrol-izin-7a(5H)-yl)-methoxy)-4-(2-(hydroxymethyl)-1,4-oxazepan-4-yl)pyrido[4,3-d]pyrimidin-7-yl)-naphthalen-2-ol], for which the IC50 stood at 0.003 µM in test [1] and 0.081 µM in test [2].
As for `CCc1c(F)ccc2cc(O)cc(-c3ncc4c(N5CCCOCC5)nc(OCC5(CN6CCOCC6)CC5)nc4c3F)c12` [Example 17, 5-Ethyl-6-fluoro-4-(8-fluoro-2-((1-(morpholinomethyl)cyclopropyl)methoxy)-4-(1,4-oxazepan-4-yl)pyrido[4,3-d]pyrimidin-7-yl)naphthalen-2-ol], the IC50 stood at 0.003 µM in test [1] and 0.189 µM in test [2].
With `C#Cc1cccc2cc(O)cc(-c3ncc4c(N5CCCOCC5)nc(OC[C@@H]5C[C@@H](F)CN5C)nc4c3F)c12` [Example 12, 5-Ethynyl-4-(8-fluoro-2-(((2S,4R)-4-fluoro-1-methylpyrrolidin-2-yl)methoxy)-4-(1,4-oxazepan-4-yl)pyrido[4,3-d]pyrimidin-7-yl)naphthalen-2-ol], the IC50 in test [1] stood at 0.004 µM; in test [2] it was 0.131 µM.
The matching figures for `CCc1c(F)ccc2cc(O)cc(-c3ncc4c(N5CCC[S+]([O-])CC5)nc(OC[C@@]56CCCN5C[C@H](F)C6)nc4c3F)c12` (stereo partly drawn) [Example 36, 4-(7-(8-Ethyl-7-fluoro-3-hydroxynaphthalen-1-yl)-8-fluoro-2-(((2R,7aS)-2-fluorotetrahydro-1H-pyrrolizin-7a(5H)-yl)methoxy)pyrido[4,3-d]pyrimidin-4-yl)-1,4-thiazepane 1-oxide]: 0.001 µM and 0.651 µM.
The matching figures for `CCc1c(F)ccc2cc(O)cc(-c3ncc4c(N5CCS(=N)(=O)CC5)nc(OC[C@@]56CCCN5C[C@H](F)C6)nc4c3F)c12` [Example 35, 4-(7-(8-Ethyl-7-fluoro-3-hydroxynaphthalen-1-yl)-8-fluoro-2-(((2R,7aS)-2-fluorotetrahydro-1H-pyrrolizin-7a(5H)-yl)methoxy)pyrido[4,3-d]pyrimidin-4-yl)-1-imino-1 λ^6-thiomorpholine 1-oxide]: 0.057 µM and above 10 µM.
With `CCc1c(F)ccc2cc(O)cc(-c3ncc4c(N5CCOCC(C(=O)NC)C5)nc(OC[C@@]56CCCN5C[C@H](F)C6)nc4c3F)c12` (single isomer, unassigned) [Example 45], the results for the IC50 in test [1] and in test [2] were 0.002 µM and 0.427 µM, respectively.
In the same order, the values of `CCc1cccc2cc(O)cc(-c3ncc4c(N5CCOCC(F)(F)C5)nc(OC[C@@]56CCCN5C[C@H](F)C6)nc4c3F)c12` [Example 7, 4-(4-(6,6-Difluoro-1,4-oxazepan-4-yl)-8-fluoro-2-(((2R,7aS)-2-fluorotetrahydro-1H-pyrrolizin-7a(5H)-yl)methoxy)pyrido [4,3-d]pyrimidin-7-yl)-5-ethylnaphthalen-2-ol] are 0.002 µM and 0.046 µM.
